Measurements: patent publication US11246866B2, “Solid pharmaceutical compositions for treating HCV” (AbbVie Inc., priority 2015, dated 2022)

Test: Single-dose crossover bioavailability study of Compound 1/Compound 2 mini-tablets
Type: in vivo, human
Conditions: for t1/2: Compound 1, fasting, harmonic mean, N = 14; for effect of administration with food on bioavailability: co-formulated mini-tablets, solid dispersion form, with food vs fasting
Method: In comparison, when administered with food, the mini-tablets provided an AUC that was only 5% lower than that provided by the regular tablets. […] All of the reference AUCs of the regular tablets were measured under fasting conditions. 14 subjects were enrolled in this study and dosed with co-formulated Compound 1/Compound 2 in mini-tablets. One subject spilled 4 mini-tablets (out of 100-150 total mini-tablets) during dosing of Period 2 (Regimen G) and was not excluded from the analysis. The mini-tablets were prepared according to a process similar to that described in Example 2. [table] [table]

Row | t1/2 (Regimen F: mini-tablets 200 mg/120 mg) [h] | t1/2 (Regimen J: two 100 mg Compound 1 tablets and three 40 mg Compound 2 tablets) [h] | effect of administration with food on bioavailability | AUC lower than that provided by regular tablets (mini-tablets containing 200 mg Compound 1, with food, vs two regular tablets under fasting conditions) [%] | AUC lower than that provided by regular tablets (mini-tablets containing 200 mg Compound 1, without food, vs two regular tablets (same amount, same solid dispersion) under fasting conditions) [%] | AUC higher than that provided by regular tablets (mini-tablets containing 120 mg Compound 2, with food, vs three regular tablets under fasting conditions) [%] | AUC lower than that provided by regular tablets (mini-tablets containing 120 mg Compound 2, without food, vs three regular tablets under fasting conditions) [%] | Structure (SMILES)
1 | 5.61 | 5.93 | significantly increase | 5 | 41 | – | – | CC(C)(C)[C@@H]1NC(=O)O[C@@H]2CCC[C@H]2OC/C=C/C(F)(F)c2nc3ccccc3nc2O[C@@H]2C[C@@H](C(=O)N[C@]3(C(=O)NS(=O)(=O)C4(C)CC4)C[C@H]3C(F)F)N(C2)C1=O [Compound 1]
2 | – | – | significantly increase | – | – | 6 | 28 | COC(=O)N[C@H](C(=O)N1CCC[C@H]1c1nc2cc([C@H]3CC[C@H](c4cc5nc([C@@H]6CCCN6C(=O)[C@@H](NC(=O)OC)[C@@H](C)OC)[nH]c5cc4F)N3c3cc(F)c(N4CCC(c5ccc(F)cc5)CC4)c(F)c3)c(F)cc2[nH]1)[C@@H](C)OC [Compound 2]
